Results published in patent US12391648B2, “Pyridyloxy thioester derivative and preparation method therefor, herbicidal composition, and application” (Qingdao Kingagroot Chemical Compound Co., Ltd., priority 2018, dated 2025).

Tests used:
Test in all cases: Post-emergence test experiment (Table 3, 1000 g/ha)
Type in all cases: in vivo
Settings in all cases: post-emergence spray, after 3 weeks, fresh weight inhibition
[1] = tested on: Monochoria vaginalis
From the text: (§1) The activity level standard of harmful plants destruction (i. e. growth inhibition rate) is as follows: • Level 5: the growth inhibition rate is greater than 85%; • Level 4: the growth inhibition rate is equal to or greater than 60% and less than 85%; • Level 3: the growth inhibition rate is equal to or greater than 40% and less than 60%; • Level 2: the growth inhibition rate is equal to or greater than 20% and less than 40%; • Level 1: the growth inhibition rate is equal to or greater than 5% and less than 20%; • Level 0: the growth inhibition rate is less than 5%;
(§2) The above described growth inhibition rate is fresh weight inhibition rate.
(§3) Post-emergence test experiment: Monocotyledonous and dicotyledonous weed seeds and main crop seeds (i. e. wheat, corn, rice, soybean, cotton, oilseed, millet and sorghum.) were put into a plastic pot loaded with soil. Then covered with 0.5-2 cm soil, the seeds were allowed to grow in good greenhouse environment. The test plants were treated at 2-3 leaf stage 2 weeks after sowing. The test compounds of the invention were dissolved with acetone respectively, then added with tween-80, and using 1.5 liters per hectare of an emulsible concentrate of methyl oleate as a synergist, and diluted by certain amount of water to certain concentration. The solution was sprayed to the plants with a sprayer. Then the plants were cultured for 3 weeks in the greenhouse, and the experiment result of weed controlling effect after 3 weeks was listed in tables 3-4.

[2] = tested on: Setaria viridis
From the text: as §1, §2, §3

[3] = tested on: Abutilon theophrasti
From the text: as §1, §2, §3

[4] = tested on: Galium spurium
From the text: as §1, §2, §3

[5] = tested on: Leptochloa chinensis
From the text: as §1, §2, §3

[6] = tested on: Digitaria sanguinalis
From the text: as §1, §2, §3

SMILES | Activity level (growth inhibition rate) Monochoria Vaginalis [1] | Activity level (growth inhibition rate) Setaria viridis [2] | Activity level (growth inhibition rate) Abutilon theophrasti [3] | Activity level (growth inhibition rate) Galium spurium [4] | Activity level (growth inhibition rate) Leptochloa chinensis [5] | Activity level (growth inhibition rate) Digitaria sanguinalis [6]
CSC(=O)C(C)Oc1nc(F)c(F)c(N)c1F (stereo not drawn) [Compound 1] | 5 (Level 5: the growth inhibition rate is greater than 85%) | 5 (Level 5: the growth inhibition rate is greater than 85%) | 5 (Level 5: the growth inhibition rate is greater than 85%) | 5 (Level 5: the growth inhibition rate is greater than 85%) | 5 (Level 5: the growth inhibition rate is greater than 85%) | 5 (Level 5: the growth inhibition rate is greater than 85%)
CSC(=O)C(C)Oc1nc(Cl)c(Cl)c(N)c1Cl (stereo not drawn) [Compound 2] | 5 (Level 5: the growth inhibition rate is greater than 85%) | 5 (Level 5: the growth inhibition rate is greater than 85%) | 5 (Level 5: the growth inhibition rate is greater than 85%) | 5 (Level 5: the growth inhibition rate is greater than 85%) | 5 (Level 5: the growth inhibition rate is greater than 85%) | 5 (Level 5: the growth inhibition rate is greater than 85%)
CC(C)=NOCCSC(=O)C(C)Oc1nc(C)c(Cl)c(N)c1Cl (stereo not drawn) [Compound 5] | 5 (Level 5: the growth inhibition rate is greater than 85%) | 5 (Level 5: the growth inhibition rate is greater than 85%) | 5 (Level 5: the growth inhibition rate is greater than 85%) | 5 (Level 5: the growth inhibition rate is greater than 85%) | 5 (Level 5: the growth inhibition rate is greater than 85%) | 5 (Level 5: the growth inhibition rate is greater than 85%)
CSC(=O)C(C)Oc1nc(C(F)(F)F)c(Cl)c(N)c1Cl (stereo not drawn) [Compound 6] | 5 (Level 5: the growth inhibition rate is greater than 85%) | 5 (Level 5: the growth inhibition rate is greater than 85%) | 5 (Level 5: the growth inhibition rate is greater than 85%) | 5 (Level 5: the growth inhibition rate is greater than 85%) | 5 (Level 5: the growth inhibition rate is greater than 85%) | 5 (Level 5: the growth inhibition rate is greater than 85%)
CCc1c(OC(C)C(=O)SC)nc(C(F)(F)F)c(CC)c1N (stereo not drawn) [Compound 8] | 5 (Level 5: the growth inhibition rate is greater than 85%) | 5 (Level 5: the growth inhibition rate is greater than 85%) | 5 (Level 5: the growth inhibition rate is greater than 85%) | 5 (Level 5: the growth inhibition rate is greater than 85%) | 5 (Level 5: the growth inhibition rate is greater than 85%) | 5 (Level 5: the growth inhibition rate is greater than 85%)
CSC(=O)C(C)Oc1ncc(C(C)C)c(N)c1Cl (stereo not drawn) [Compound 9] | 5 (Level 5: the growth inhibition rate is greater than 85%) | 5 (Level 5: the growth inhibition rate is greater than 85%) | 5 (Level 5: the growth inhibition rate is greater than 85%) | 5 (Level 5: the growth inhibition rate is greater than 85%) | 5 (Level 5: the growth inhibition rate is greater than 85%) | 5 (Level 5: the growth inhibition rate is greater than 85%)
CSC(=O)C(Oc1nc(F)c(Cl)c(N)c1Cl)c1cn(C)nc1C (stereo not drawn) [Compound 57] | 5 (Level 5: the growth inhibition rate is greater than 85%) | – | 5 (Level 5: the growth inhibition rate is greater than 85%) | 5 (Level 5: the growth inhibition rate is greater than 85%) | – | –
CSC(=O)C(Oc1nc(F)c(Cl)c(N)c1Cl)c1cnn(C(F)F)c1 (stereo not drawn) [Compound 58] | 5 (Level 5: the growth inhibition rate is greater than 85%) | – | 5 (Level 5: the growth inhibition rate is greater than 85%) | 5 (Level 5: the growth inhibition rate is greater than 85%) | – | –
CSC(=O)C(Oc1nc(F)c(Cl)c(N)c1Cl)c1ccccc1 (stereo not drawn) [Compound 59] | 5 (Level 5: the growth inhibition rate is greater than 85%) | – | 5 (Level 5: the growth inhibition rate is greater than 85%) | 5 (Level 5: the growth inhibition rate is greater than 85%) | – | –
CCSC(=O)C(Oc1nc(F)c(Cl)c(N)c1Cl)c1ccc(C(F)(F)F)cc1 (stereo not drawn) [Compound 60] | 5 (Level 5: the growth inhibition rate is greater than 85%) | – | 5 (Level 5: the growth inhibition rate is greater than 85%) | 5 (Level 5: the growth inhibition rate is greater than 85%) | – | –
CSC(=O)C(Oc1nc(F)c(Cl)c(N)c1Cl)c1cccc(Cl)c1 (stereo not drawn) [Compound 61] | 5 (Level 5: the growth inhibition rate is greater than 85%) | – | 5 (Level 5: the growth inhibition rate is greater than 85%) | 5 (Level 5: the growth inhibition rate is greater than 85%) | – | –
COc1ccc(C(Oc2nc(F)c(Cl)c(N)c2Cl)C(=O)SC)c(C)c1 (stereo not drawn) [Compound 62] | 5 (Level 5: the growth inhibition rate is greater than 85%) | – | 5 (Level 5: the growth inhibition rate is greater than 85%) | 5 (Level 5: the growth inhibition rate is greater than 85%) | – | –
CSC(=O)C(Oc1nc(F)c(Cl)c(N)c1Cl)c1cccnc1 (stereo not drawn) [Compound 63] | 5 (Level 5: the growth inhibition rate is greater than 85%) | – | 5 (Level 5: the growth inhibition rate is greater than 85%) | 5 (Level 5: the growth inhibition rate is greater than 85%) | – | –
CSC(=O)C(Oc1nc(F)c(Cl)c(N)c1Cl)c1cncnc1 (stereo not drawn) [Compound 64] | 5 (Level 5: the growth inhibition rate is greater than 85%) | – | 5 (Level 5: the growth inhibition rate is greater than 85%) | 5 (Level 5: the growth inhibition rate is greater than 85%) | – | –
CSC(=O)C(Oc1nc(F)c(Cl)c(N)c1Cl)c1ccc2ccccc2c1 (stereo not drawn) [Compound 65] | 5 (Level 5: the growth inhibition rate is greater than 85%) | – | 5 (Level 5: the growth inhibition rate is greater than 85%) | 5 (Level 5: the growth inhibition rate is greater than 85%) | – | –
CSC(=O)C(Cc1ccccc1)Oc1nc(F)c(Cl)c(N)c1Cl (stereo not drawn) [Compound 126] | 5 (Level 5: the growth inhibition rate is greater than 85%) | – | 5 (Level 5: the growth inhibition rate is greater than 85%) | 5 (Level 5: the growth inhibition rate is greater than 85%) | – | –
